Literature values as cited in patent US20030180704A1, “Ice-controlling molecules and uses thereof” (priority 2002, published 2003).

Test system: Crithidia fasciculata
Settings: different media; for ability to cryopreserve Crithidia fasciculata without toxicity: stored at -20 C

Compound | ability to cryopreserve Crithidia fasciculata without toxicity | toxicity to Crithidia fasciculata (cryopreservation at -20 C)
CC(=O)NCCO [N-acetylethanolamine] | potential outstanding cryoprotectants | 
OC1CCC(O)CC1 (stereo not shown) [1,4-cyclohexanediol] | potential outstanding cryoprotectants | 
C[S+](C)[O-] [dimethylsulfoxide] | potential outstanding cryoprotectants | 
OCCC(O)CO (stereo not shown) [1,2,4-butantriol] | potential outstanding cryoprotectants | 
OC1CCCC(O)C1 (stereo not shown) [1,3-cyclohexanediol] |  | toxic
CC(O)CO (stereo not shown) [propylene glycol] | potential outstanding cryoprotectants | 
OCC(O)CO [glycerol] | best cryoprotectant | 
